The values below come from US5935840A, “Activated recombinant adenovirus proteinases” (priority 1995, dated 1999).

Entries after “also recorded” stand apart in the source; their conditions may differ. No end group written: not given here.

Series [1] addresses T1, Ad2 proteinase (rEP protein) (Human adenovirus C serotype 2, UniProt P03252).
T1 construct: Plasmid pT7AD23k6 contains the 204 codons of the Ad2 proteinase reading frame plus a translational termination codon; made in house; host or cells: E. coli BL21(DE3)
The format is biochemical, human adenovirus type 2. The note with it: for Rate (pmol substrate min^-1) / Stimulation (fold): rate in presence of effector divided by rate in its absence: 8.3 nM rEP protein, 98 nM pVIc peptide; for Rate (pmol substrate min^-1): 1 μM (Leu-Arg-Gly-Gly-NH)2-rhodamine, effector at concentration giving maximal stimulation; for Stimulation (fold): rate in presence of effector divided by rate in its absence: 1 μM substrate; for Effector concentration that gave maximal stimulation of proteinase activity: moles of molecules per liter, 8.3 nM rEP, 98 nM pVIc. From the text:
The nature of the proteinase cofactor(s) was pursued with the aid of the second assay, which utilizes the substrate (Leu-Arg-Gly-Gly-NH)2 -rhodamine. The design of this substrate was based on two facts. (1) It was known that the proteinase present in disrupted Ad2 virions would cleave small peptides with sequence similar to that found at natural cleavage sites in adenovirus virion precursors (Webster et al., 1989). (2) Cleavage of either tetra-peptide sequence from the substituted rhodamine substrate produces a very large increase, up to a 3500-fold, in fluorescence. Under conditions where only a small fraction of the rhodamine substrate is cleaved, the increase in fluorescence is proportional to the amount of proteinase present and to the time of incubation. Thus, the fluorescence assay provides a quantitative method for assessing proteinase activity that is more sensitive convenient and rapid than the gel electrophoresis assay.
After determining the identity of the two cofactors, reconstitution of adenovirus proteinase activity in vitro with purified components was accomplished. […] In (a), Assays in 1 ml contained 1.2 nM rEP protein, 11.9 pM Ad2 DNA and the indicated concentrations of pVI-c peptide. The rate of substrate hydrolysis is the rate in the reaction minus the rate with the rEP protein and Ad2 DNA alone which was 0.068 pmol min^-1. In (b), Assays in 1 ml contained 1.2 nM rEP protein, 36 nM pVI-c peptide and the indicated concentrations of Ad2 DNA. The rate of substrate hydrolysis is the rate in the reaction minus the rate with the rEP protein and pVI-c alone which was 2.76 pmol min^-1. The concentration of (Leu-Arg-Gly-Gly-NH)2 -rhodamine was 5 μM, and its rate of hydrolysis to Leu-Arg-Gly-Gly-NH-rhodamine was determined by measuring the increase in fluorescence every 3 minutes for 15 minutes. The pVI-c peptide was assembled in a peptide synthesizer.
Assays were performed in 400 μl of Assay Buffer (50 mM Tris-HCl, pH 7.4, 25 mM NaCl, 10 mM octylglucoside, and 1 mM dithiothreitol). The concentration of the fluorogenic substrate, (Leu-Arg-Gly-Gly-NH)2 -rhodamine was 5 μM. When present, the number of disrupted virus particles was 10^10 and the amount of recombinant proteinase was 0.12 mAU280 nm. […] After 30 minutes at 37° C., a 360 μl aliquot of the reaction was added to 340 μl of Assay Buffer minus octylglucoside, and the increase in fluorescence was measured. The excitation wavelength was 492 nm and the emission wavelength was 523 nm, both with a bandwidth of 5 nm. The change in fluorescence, ΔF, is the magnitude of the fluorescence from the sample minus the magnitude of the fluorescence from an identical solution without enzyme.
DNase-treated disrupted virus was obtained by incubating 2×10^10 disrupted virions in 20 μl containing 0.1M NaAc, pH 5.0, 5 mM MgCl2, and 55 μg/ml DNase I for 4 minutes at 25° C. Then, EDTA to 23 mM and dithiothreitol to 2.3 mM were added, and the reactions were heated at 56° C. for 1 minute to inactivate the DNase.
For the assays shown in FIG. 8, the DNase reactions were diluted by the addition of 380 μl Assay Buffer containing the substrate, the proteinase and either 2×10^10 molecules of Ad2 DNA (+) or no DNA (-). After 30 minutes at 37° C., 360 μl of the reactions were added to 340 μl Assay Buffer minus octylglucoside and the increase in fluorescence was measured. The assays in (B) and (C) were identical to those in (A) except that in (B) H2ts1 virus was added after the DNase was inactivated (i-DNase) and in (C) no Dnase was present. In (D) recombinant proteinase plus 10^10 molecules of Ad2 DNA were preincubated for 10 minutes at 37° C. before adding substrate.
.dagger. All assays contained 8.3 nM rEP protein, 98 nM pVIc peptide, and
1 μM (Leu--Arg--Gly--Gly--NH)2rhodamine. The rate of substrate

For series [2], the system named is Ad2 major core protein precursor, pVII. Description: Assay of adenovirus proteinase activity in crude extracts: cleavage of [35S]-methionine-labeled pVII (SDS-PAGE, autoradiography). Format: biochemical, adenovirus type 2. The settings on record: for Proteinase activity (cleavage of pVII): log phase cells. The procedure:
The expression products of the above-described Ad2 and Ad12 proteinase plasmids were tested for their ability to cleave the Ad2 major core protein precursor, pVII, in crude extracts from adenovirus-infected cells. The extracts were obtained from human cells infected with the temperature-sensitive mutant Ad2 strain, H2ts1, which has a defective proteinase. As described below, adenovirus proteinase activity requires the presence of two cofactors. […] The recombinant proteinases were also characterized by peptide sequence analysis of their amino-termini.
Bacterial extracts were incubated with the radiolabeled substrate (pVII). Samples were removed at different times and analyzed by SDS-PAGE and autoradiography. […] Appearance of the processed VII band and concurrent decrease of the precursor pVII band indicates proteinase activity. Radiolabeled proteins of Ad2 virions were run on the gel to indicate the positions of pVII, VII, and other virion components (lane a). Extracts from Ad2 -infected HeLa cells were assayed as a positive control for proteinase activity (lane b).
Adenovirus proteinase activity was monitored by the cleavage of [^35 S]-methionine-labeled major core precursor (pVII) essentially as described (Bhatti and Weber, Biochem. Biophys. Res. Comm. 81: 973-797, (1978)). The proteinase substrate was prepared from Ad2Ad2tsl-infected HeLa cells grown at 39° C. and labeled with [^35 S]-methionine (200 μCi/plate) from approximately 28 to 30 hours after infection. Labeled cultures were harvested, washed twice in Phosphate Buffered Saline (PBS), resuspended in 1.0 ml of 10 mM sodium phosphate buffer, pH 7.4, per plate, and sonicated for 40 seconds using a water-cooled sonicator horn (Branson Sonic Power Co., Danbury, Conn.). The extract was then centrifuged at 12,000×g for 10 minutes, and the pellet was resuspended in 10 mM phosphate buffer.
Extracts of Ad-infected cells, harvested 40 hours after infection at 37° C. were used as a source of viral proteinase. Harvested cultures were washed twice with PBS, resuspended in 10 mM phosphate buffer, frozen and thawed once, and centrifuged at 12,000×g for 10 minutes. Pellets were resuspended in 1.0 ml phosphate buffer, pH 7.4, per 10^6 infected cells and sonicated 4×10 seconds; samples were stored at -70° C. Bacterial extracts were prepared by lysozyme-EDTAtreatment of cultures harvested 2 hours after IPTG induction.
Assays were performed by mixing equal volumes of [^35 S]-labeled substrate and test extract and incubating at 37° C. At different times, 25 μl samples were removed, mixed with 25 μl of SDS Sample Buffer, heated to 90° C., and analyzed by SDS-polyacrylamide gel electrophoresis and autoradiography as described (Anderson et al., J. Virol. 12: 241-252 (1973).
Recombinant proteinase polypeptides were assayed for proteinase activity by incubating whole-cell extracts of BL21 (DE3), pT7AD23K5/BL21(DE3), and pT7AD23k6/BL21(DE3), prepared as described above, with extracts of [^35 S]-methionine-labeled Ad2 virion precursor polypeptides. Incubation of the labeled extract at 37° C. for up to 20 hours, alone or with an extract prepared from uninfected HeLa cells, produced little change in the pattern of labeled polypeptides.

T1 sequence (P03252 whole entry): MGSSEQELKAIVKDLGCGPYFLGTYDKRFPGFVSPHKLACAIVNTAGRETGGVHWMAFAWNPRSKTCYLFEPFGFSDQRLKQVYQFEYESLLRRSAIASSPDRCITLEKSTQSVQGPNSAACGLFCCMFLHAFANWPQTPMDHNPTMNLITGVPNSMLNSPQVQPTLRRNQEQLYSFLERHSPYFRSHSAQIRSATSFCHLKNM

`N[C@@H](CCC(=O)O)C(=O)O` [Glutamic acid]: in series [1], the “Rate (pmol substrate min^-1)” value came out at 2.3 pmol substrate min^-1, the “Stimulation (fold): rate in presence of effector divided by rate in its absence” value is on record as below 1.0 fold and the “Effector concentration that gave maximal stimulation of proteinase activity” value is 780 nM.

On to “CGYGPKKKRKVGG [peptide similar in character to pVI-c]”, for which, in series [1], the “Substitution for the pVI-c peptide as cofactor” value is listed as “did not substitute”.

For “23K11: Ad2 proteinase variant, E5 QELKAIVK13 deleted, 194 amino acids”, the “Proteinase activity (cleavage of pVII)” value in series [2] (either uninduced, stationary or induced) is recorded as “No processing activity was detected; also recorded: No proteinase activity”; in series [2] (extracts of IPTG-induced), “not active”. For the same compound, the Activity/Conditions result in series [2] (no growth conditions printed) was “Inactive”.

With Heparin, in series [1], the “Rate (pmol substrate min^-1)” value was 12.9 pmol substrate min^-1, the “Stimulation (fold): rate in presence of effector divided by rate in its absence” value came out at 4.7 fold and the “Effector concentration that gave maximal stimulation of proteinase activity” value is 33 nM. Besides, the “Substitution for Ad2 DNA as cofactor of proteinase activity” value in series [1] (in vitro) is on record as “substituted for Ad2 DNA”.

As for `N[C@@H](CC(=O)O)C(=O)O` [Aspartic acid], in series [1], the “Rate (pmol substrate min^-1)” value worked out at 2.1 pmol substrate min^-1, the “Stimulation (fold): rate in presence of effector divided by rate in its absence” value is on record as below 1.0 fold and the “Effector concentration that gave maximal stimulation of proteinase activity” value worked out at 1380 nM.

Consider “23K13: Ad2 proteinase variant with GHHHHHHNM at carboxy-terminus”, for which, in series [2] (Induced, log phase), the Activity/Conditions result was “Active”. For the same compound, in series [2] (extracts of IPTG-induced), the “Proteinase activity (cleavage of pVII)” value was “as active as 23k6”.

Consider “23K10: recombinant Ad2 proteinase from pT7AD23K10, same reading frame as pT7AD23k6”, for which the Activity/Conditions result in series [2] (Induced, log phase) is given as “Active”. The “Proteinase activity (cleavage of pVII)” value in series [2] (extracts of IPTG-induced) is “active”.
